In PubChem BioAssay (NCI):
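Following 48 hours of exposure in 96-well plates, responses at five concentrations were used to interpolate endpoints linearly. At the TGI there is no net growth.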

Experiments:
Assay in all cases: NCI-60 cell line screen, 48 h
HOP-62 NSCLC = tested on: HOP-62 NSCLC
A549 NSCLC = tested on: A549 NSCLC
IGROV1 ovarian = tested on: IGROV1 ovarian
HS 578T breast = tested on: HS 578T breast
RXF 393 renal = tested on: RXF 393 renal
OVCAR-4 ovarian = tested on: OVCAR-4 ovarian
SF-295 CNS = tested on: SF-295 CNS
MDA-MB-231 breast = tested on: MDA-MB-231 breast
HCC-2998 colon = tested on: HCC-2998 colon
HL-60(TB) leukemia = tested on: HL-60(TB) leukemia
CCRF-CEM leukemia = tested on: CCRF-CEM leukemia
UACC-257 melanoma = tested on: UACC-257 melanoma
SK-MEL-2 melanoma = tested on: SK-MEL-2 melanoma
MCF7 breast = tested on: MCF7 breast
SNB-19 CNS = tested on: SNB-19 CNS
MDA-N = tested on: MDA-N
MDA-MB-435 = tested on: MDA-MB-435
OVCAR-8 ovarian = tested on: OVCAR-8 ovarian
SK-MEL-28 melanoma = tested on: SK-MEL-28 melanoma
MOLT-4 leukemia = tested on: MOLT-4 leukemia
ACHN renal = tested on: ACHN renal
SR leukemia = tested on: SR leukemia
UACC-62 melanoma = tested on: UACC-62 melanoma
HT29 colon = tested on: HT29 colon
DU-145 prostate = tested on: DU-145 prostate
LOX IMVI melanoma = tested on: LOX IMVI melanoma
TK-10 renal = tested on: TK-10 renal
SK-OV-3 ovarian = tested on: SK-OV-3 ovarian
OVCAR-5 ovarian = tested on: OVCAR-5 ovarian
CAKI-1 renal = tested on: CAKI-1 renal
786-0 renal = tested on: 786-0 renal
SNB-75 CNS = tested on: SNB-75 CNS
KM12 colon = tested on: KM12 colon
SF-539 CNS = tested on: SF-539 CNS
NCI/ADR-RES ovarian = tested on: NCI/ADR-RES ovarian
M14 melanoma = tested on: M14 melanoma
BT-549 breast = tested on: BT-549 breast
EKVX NSCLC = tested on: EKVX NSCLC
HCT-116 colon = tested on: HCT-116 colon
HCT-15 colon = tested on: HCT-15 colon
NCI-H460 lung = tested on: NCI-H460 lung
NCI-H226 lung = tested on: NCI-H226 lung
UO-31 renal = tested on: UO-31 renal
SK-MEL-5 melanoma = tested on: SK-MEL-5 melanoma
A498 renal = tested on: A498 renal
MALME-3M melanoma = tested on: MALME-3M melanoma
OVCAR-3 ovarian = tested on: OVCAR-3 ovarian
T-47D breast = tested on: T-47D breast
SF-268 CNS = tested on: SF-268 CNS
U251 CNS = tested on: U251 CNS
PC-3 prostate = tested on: PC-3 prostate
SN12C renal = tested on: SN12C renal
NCI-H23 lung = tested on: NCI-H23 lung
COLO 205 colon = tested on: COLO 205 colon
NCI-H522 lung = tested on: NCI-H522 lung
HOP-92 NSCLC = tested on: HOP-92 NSCLC
SW-620 colon = tested on: SW-620 colon
RPMI-8226 leukemia = tested on: RPMI-8226 leukemia
K-562 leukemia = tested on: K-562 leukemia

COC(=O)/C(=N/NC(N)=O)C(C(=O)C(=O)Nc1ccc(C)cc1)c1nc2ccc(C(=O)c3ccccc3)cc2[nH]c1=O (configuration not stated)
TGI (HOP-62 NSCLC): > 100 µM | TGI (A549 NSCLC): > 100 µM | TGI (IGROV1 ovarian): > 100 µM | TGI (HS 578T breast): > 100 µM | TGI (RXF 393 renal): > 100 µM | TGI (OVCAR-4 ovarian): > 100 µM | TGI (SF-295 CNS): > 100 µM | TGI (MDA-MB-231 breast): > 100 µM | TGI (HCC-2998 colon): > 100 µM | TGI (HL-60(TB) leukemia): > 100 µM | TGI (CCRF-CEM leukemia): > 100 µM | TGI (UACC-257 melanoma): > 100 µM | TGI (SK-MEL-2 melanoma): > 100 µM | TGI (MCF7 breast): > 100 µM | TGI (SNB-19 CNS): > 100 µM | TGI (MDA-N): > 100 µM | TGI (MDA-MB-435): > 100 µM | TGI (OVCAR-8 ovarian): > 100 µM | TGI (SK-MEL-28 melanoma): > 100 µM | TGI (MOLT-4 leukemia): > 100 µM | TGI (ACHN renal): > 100 µM | TGI (SR leukemia): 41.8 µM | TGI (UACC-62 melanoma): > 100 µM | TGI (HT29 colon): > 100 µM | TGI (DU-145 prostate): > 100 µM | TGI (LOX IMVI melanoma): > 100 µM | TGI (TK-10 renal): > 100 µM | TGI (SK-OV-3 ovarian): > 100 µM | TGI (OVCAR-5 ovarian): > 100 µM | TGI (CAKI-1 renal): > 100 µM | TGI (786-0 renal): > 100 µM | TGI (SNB-75 CNS): > 100 µM | TGI (KM12 colon): > 100 µM | TGI (SF-539 CNS): > 100 µM | TGI (NCI/ADR-RES ovarian): > 100 µM | TGI (M14 melanoma): > 100 µM | TGI (BT-549 breast): > 100 µM | TGI (EKVX NSCLC): > 100 µM | TGI (HCT-116 colon): > 100 µM | TGI (HCT-15 colon): > 100 µM | TGI (NCI-H460 lung): > 100 µM | TGI (NCI-H226 lung): > 100 µM | TGI (UO-31 renal): > 100 µM | TGI (SK-MEL-5 melanoma): > 100 µM | TGI (A498 renal): 89.6 µM | TGI (MALME-3M melanoma): > 100 µM | TGI (OVCAR-3 ovarian): > 100 µM | TGI (T-47D breast): > 100 µM | TGI (SF-268 CNS): > 100 µM | TGI (U251 CNS): > 100 µM | TGI (PC-3 prostate): > 100 µM | TGI (SN12C renal): > 100 µM | TGI (NCI-H23 lung): > 100 µM | TGI (COLO 205 colon): > 100 µM | TGI (NCI-H522 lung): > 100 µM | TGI (HOP-92 NSCLC): > 100 µM | TGI (SW-620 colon): > 100 µM

C=CCN1CN(C2CCCCC2)CSC1=S
TGI (HOP-62 NSCLC): > 40.7 µM | TGI (A549 NSCLC): > 65.7 µM | TGI (IGROV1 ovarian): 31.4 µM | TGI (HS 578T breast): 18.4 µM | TGI (RXF 393 renal): 18.7 µM | TGI (OVCAR-4 ovarian): 27.4 µM | TGI (SF-295 CNS): > 81.5 µM | TGI (MDA-MB-231 breast): 43.6 µM | TGI (HCC-2998 colon): 21.1 µM | TGI (HL-60(TB) leukemia): 0.655 µM | TGI (UACC-257 melanoma): 30 µM | TGI (SK-MEL-2 melanoma): 26.9 µM | TGI (MCF7 breast): 9.11 µM | TGI (SNB-19 CNS): > 100 µM | TGI (RPMI-8226 leukemia): > 34.4 µM | TGI (MDA-N): 21.7 µM | TGI (MDA-MB-435): 12.2 µM | TGI (OVCAR-8 ovarian): 40.8 µM | TGI (K-562 leukemia): > 45.7 µM | TGI (SK-MEL-28 melanoma): 38.5 µM | TGI (MOLT-4 leukemia): > 22.5 µM | TGI (ACHN renal): 17.5 µM | TGI (SR leukemia): 3.15 µM | TGI (UACC-62 melanoma): 22.1 µM | TGI (HT29 colon): 17 µM | TGI (DU-145 prostate): > 26.4 µM | TGI (LOX IMVI melanoma): 27 µM | TGI (TK-10 renal): 27 µM | TGI (SK-OV-3 ovarian): > 44.1 µM | TGI (OVCAR-5 ovarian): 27.6 µM | TGI (CAKI-1 renal): 24 µM | TGI (786-0 renal): 18.8 µM | TGI (SNB-75 CNS): 25.7 µM | TGI (KM12 colon): 18 µM | TGI (SF-539 CNS): 8.04 µM | TGI (NCI/ADR-RES ovarian): > 95.5 µM | TGI (M14 melanoma): 17.8 µM | TGI (BT-549 breast): > 80.3 µM | TGI (EKVX NSCLC): 37.2 µM | TGI (HCT-116 colon): 25.1 µM | TGI (HCT-15 colon): > 45.7 µM | TGI (NCI-H460 lung): 29.8 µM | TGI (NCI-H226 lung): 42.8 µM | TGI (UO-31 renal): 24 µM | TGI (SK-MEL-5 melanoma): 14.2 µM | TGI (A498 renal): 33.2 µM | TGI (MALME-3M melanoma): 18.7 µM | TGI (OVCAR-3 ovarian): 29.6 µM | TGI (T-47D breast): 30.4 µM | TGI (SF-268 CNS): 11.8 µM | TGI (U251 CNS): 15.7 µM | TGI (PC-3 prostate): 28 µM | TGI (SN12C renal): 27.1 µM | TGI (NCI-H23 lung): 40.5 µM | TGI (COLO 205 colon): 14.3 µM | TGI (NCI-H522 lung): 17.1 µM | TGI (HOP-92 NSCLC): 39.3 µM | TGI (SW-620 colon): 24.3 µM

CC(C)(Oc1ccc(Cl)cc1)C(=O)N(C(=O)N1CCN(c2ccccc2)CC1)c1ccccc1
TGI (HOP-62 NSCLC): > 100 µM | TGI (A549 NSCLC): > 100 µM | TGI (HS 578T breast): > 100 µM | TGI (RXF 393 renal): > 100 µM | TGI (OVCAR-4 ovarian): > 100 µM | TGI (SF-295 CNS): > 100 µM | TGI (MDA-MB-231 breast): > 100 µM | TGI (HCC-2998 colon): > 100 µM | TGI (HL-60(TB) leukemia): > 100 µM | TGI (CCRF-CEM leukemia): > 100 µM | TGI (UACC-257 melanoma): > 100 µM | TGI (SK-MEL-2 melanoma): > 100 µM | TGI (MCF7 breast): > 100 µM | TGI (SNB-19 CNS): > 100 µM | TGI (MDA-N): > 100 µM | TGI (MDA-MB-435): > 100 µM | TGI (OVCAR-8 ovarian): > 100 µM | TGI (K-562 leukemia): > 100 µM | TGI (SK-MEL-28 melanoma): > 100 µM | TGI (MOLT-4 leukemia): > 100 µM | TGI (ACHN renal): > 100 µM | TGI (SR leukemia): > 100 µM | TGI (UACC-62 melanoma): > 100 µM | TGI (HT29 colon): > 100 µM | TGI (DU-145 prostate): > 100 µM | TGI (LOX IMVI melanoma): > 100 µM | TGI (TK-10 renal): > 100 µM | TGI (SK-OV-3 ovarian): > 100 µM | TGI (OVCAR-5 ovarian): > 100 µM | TGI (CAKI-1 renal): > 100 µM | TGI (786-0 renal): > 100 µM | TGI (SNB-75 CNS): > 100 µM | TGI (KM12 colon): > 100 µM | TGI (SF-539 CNS): > 100 µM | TGI (NCI/ADR-RES ovarian): > 100 µM | TGI (M14 melanoma): > 100 µM | TGI (BT-549 breast): > 100 µM | TGI (EKVX NSCLC): > 100 µM | TGI (HCT-116 colon): > 100 µM | TGI (HCT-15 colon): > 100 µM | TGI (NCI-H460 lung): > 100 µM | TGI (NCI-H226 lung): > 100 µM | TGI (UO-31 renal): > 100 µM | TGI (SK-MEL-5 melanoma): > 100 µM | TGI (A498 renal): > 100 µM | TGI (MALME-3M melanoma): > 100 µM | TGI (OVCAR-3 ovarian): > 100 µM | TGI (T-47D breast): > 100 µM | TGI (SF-268 CNS): > 100 µM | TGI (U251 CNS): > 100 µM | TGI (PC-3 prostate): > 100 µM | TGI (SN12C renal): > 100 µM | TGI (NCI-H23 lung): > 100 µM | TGI (COLO 205 colon): > 100 µM | TGI (NCI-H522 lung): > 100 µM | TGI (HOP-92 NSCLC): > 100 µM | TGI (SW-620 colon): > 100 µM
